{
  "source": "paper PMC5831858",
  "about": "“Pharmacological characterisation of CR6086, a potent prostaglandin E2 receptor 4 antagonist, as a new potential disease-modifying anti-rheumatic drug” (Arthritis Research & Therapy, 2018)",
  "key": {"IL-6 gene expression": {"test_system": "IL-6 gene expression", "assay": "IL-6 gene expression in THP-1 cells differentiated to macrophages", "assay_type": "cell-based", "details": "Homo sapiens, LPS 10 ng/ml + PGE2 10 nM, read-out: IC50 transcription of IL-6", "experimental": "The human monocyte cell line THP-1 was obtained from the ATCC and was grown according to the instructions provided. THP-1 monocytic cells were differentiated to macrophages with 100 nM phorbol 12-myristate 13-acetate (PMA) for 4 days. Macrophages were then stimulated with lipopolysaccharide (LPS) 10 ng/ml and PGE2 10 nM for 3 or 24 h. Total RNA was purified using the ABI Prism 6100 Nucleic Acid PrepStation (Applied Biosystems, Foster City, CA, USA) and retrotranscribed using the High-Capacity cDNA Reverse Transcription Kit (Thermo Fisher Scientific). RT-PCR analysis was performed using the Applied Biosystems 7500 Fast Real-Time PCR System using specific TaqMan assays (number Hs00174131_m1 for IL-6, number Hs00900054_m1 for vascular endothelial growth factor A [VEGFA]; Thermo Fisher Scientific) and, as an endogenous control, the 18S Pre-Developed TaqMan® Assay (Thermo Fisher Scientific). The data analysis, with normalisation on 18S amplified values, was done following Thermo Fisher Scientific’s specific instructions for gene expression relative quantification. All individual data are the result of at least three different analyses for each sample."}, "[1]": {"test_system": "arthritic mice (collagen-induced arthritis model)", "assay": "CIA in mice, third study (CR6086, MTX, combination): clinical score, oedema, histology", "assay_type": "in vivo, mouse", "details": "for CLINICAL SCORE (interquartile range): 30 mg/kg CR6086, median (IQR)"}, "IP (PGI2)": {"molecular_target": "IP (PGI2) (Homo sapiens, UniProt P43119)", "sequence (P43119 whole entry)": "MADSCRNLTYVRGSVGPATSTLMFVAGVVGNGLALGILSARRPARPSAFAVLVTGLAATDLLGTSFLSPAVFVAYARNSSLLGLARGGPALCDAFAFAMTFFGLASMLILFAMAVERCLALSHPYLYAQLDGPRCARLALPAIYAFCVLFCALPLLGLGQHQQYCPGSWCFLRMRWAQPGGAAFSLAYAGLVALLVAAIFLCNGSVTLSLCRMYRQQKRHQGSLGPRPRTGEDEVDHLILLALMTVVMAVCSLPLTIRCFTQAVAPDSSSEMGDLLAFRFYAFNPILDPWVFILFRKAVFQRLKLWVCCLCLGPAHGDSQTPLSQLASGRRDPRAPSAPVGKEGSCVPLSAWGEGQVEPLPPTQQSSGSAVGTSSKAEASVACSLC", "assay": "Eicosanoid receptor IP binding", "details": "[^3H]iloprost, HEK-293 cells, read-out: CR6086 Activity at 10µM"}, "A3": {"molecular_target": "A3 (Homo sapiens, UniProt P0DMS8)", "sequence (P0DMS8 whole entry)": "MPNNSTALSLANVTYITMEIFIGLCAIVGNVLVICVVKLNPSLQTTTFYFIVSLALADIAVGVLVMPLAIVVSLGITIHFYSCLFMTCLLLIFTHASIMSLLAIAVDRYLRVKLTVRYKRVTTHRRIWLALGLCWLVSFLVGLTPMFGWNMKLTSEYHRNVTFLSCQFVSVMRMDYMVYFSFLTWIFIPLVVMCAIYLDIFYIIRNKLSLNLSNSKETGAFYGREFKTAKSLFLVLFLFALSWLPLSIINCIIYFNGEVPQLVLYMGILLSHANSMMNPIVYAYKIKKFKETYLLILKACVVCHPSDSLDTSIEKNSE", "assay": "Adenosine receptor A3 binding", "details": "[^125I]AB-MECA, Human recombinant HEK-293 cells, read-out: CR6086 Activity at 10µM"}, "M3": {"molecular_target": "M3 (Homo sapiens, UniProt P20309)", "sequence (P20309 whole entry)": "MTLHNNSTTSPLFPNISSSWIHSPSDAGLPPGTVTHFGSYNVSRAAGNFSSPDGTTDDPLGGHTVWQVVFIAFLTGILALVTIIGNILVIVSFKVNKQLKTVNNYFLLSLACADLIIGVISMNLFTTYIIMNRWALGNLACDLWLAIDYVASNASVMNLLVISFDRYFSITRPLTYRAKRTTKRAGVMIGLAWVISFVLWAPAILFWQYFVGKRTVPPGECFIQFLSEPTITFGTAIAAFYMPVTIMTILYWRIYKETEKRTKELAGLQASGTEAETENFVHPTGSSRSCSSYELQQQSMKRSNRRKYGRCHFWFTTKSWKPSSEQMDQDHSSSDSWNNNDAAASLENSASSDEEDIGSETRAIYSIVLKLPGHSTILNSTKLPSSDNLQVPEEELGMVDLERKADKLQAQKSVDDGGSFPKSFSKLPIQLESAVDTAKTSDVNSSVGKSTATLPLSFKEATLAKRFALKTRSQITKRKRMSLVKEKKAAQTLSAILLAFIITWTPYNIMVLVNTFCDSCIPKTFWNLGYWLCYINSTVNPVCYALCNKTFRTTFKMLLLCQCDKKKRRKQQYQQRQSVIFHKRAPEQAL", "assay": "Muscarinic acetylcholine receptor M3 binding", "details": "[^3H]4-DAMP, Human recombinant CHO cells, read-out: CR6086 Activity at 10µM"}, "MC4": {"molecular_target": "MC4 (Homo sapiens, UniProt P32245)", "sequence (P32245 whole entry)": "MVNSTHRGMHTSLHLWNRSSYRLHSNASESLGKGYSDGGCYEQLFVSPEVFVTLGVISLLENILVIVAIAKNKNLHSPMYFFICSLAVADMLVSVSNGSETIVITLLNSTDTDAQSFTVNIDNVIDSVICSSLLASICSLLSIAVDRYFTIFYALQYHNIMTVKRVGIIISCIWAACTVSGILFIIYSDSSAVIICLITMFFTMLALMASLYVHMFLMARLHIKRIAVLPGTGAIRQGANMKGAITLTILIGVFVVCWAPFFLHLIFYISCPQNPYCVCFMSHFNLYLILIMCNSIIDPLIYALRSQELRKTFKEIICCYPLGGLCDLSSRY", "assay": "MC4 receptor binding", "details": "[^125I]NDP-α-MSH, Human recombinant CHO cells, read-out: CR6086 Activity at 10µM"}, "PDGF": {"test_system": "PDGF", "assay": "PDGF receptor binding", "details": "[^125I]PDGF BB, Balb/c 3T3 cells"}, "ER": {"test_system": "ER", "assay": "Nuclear receptor ER binding", "details": "[^3H]estradiol, MCF-7 cells"}, "Dopamine transporter": {"molecular_target": "Dopamine transporter (Homo sapiens, UniProt Q01959)", "sequence (Q01959 whole entry)": "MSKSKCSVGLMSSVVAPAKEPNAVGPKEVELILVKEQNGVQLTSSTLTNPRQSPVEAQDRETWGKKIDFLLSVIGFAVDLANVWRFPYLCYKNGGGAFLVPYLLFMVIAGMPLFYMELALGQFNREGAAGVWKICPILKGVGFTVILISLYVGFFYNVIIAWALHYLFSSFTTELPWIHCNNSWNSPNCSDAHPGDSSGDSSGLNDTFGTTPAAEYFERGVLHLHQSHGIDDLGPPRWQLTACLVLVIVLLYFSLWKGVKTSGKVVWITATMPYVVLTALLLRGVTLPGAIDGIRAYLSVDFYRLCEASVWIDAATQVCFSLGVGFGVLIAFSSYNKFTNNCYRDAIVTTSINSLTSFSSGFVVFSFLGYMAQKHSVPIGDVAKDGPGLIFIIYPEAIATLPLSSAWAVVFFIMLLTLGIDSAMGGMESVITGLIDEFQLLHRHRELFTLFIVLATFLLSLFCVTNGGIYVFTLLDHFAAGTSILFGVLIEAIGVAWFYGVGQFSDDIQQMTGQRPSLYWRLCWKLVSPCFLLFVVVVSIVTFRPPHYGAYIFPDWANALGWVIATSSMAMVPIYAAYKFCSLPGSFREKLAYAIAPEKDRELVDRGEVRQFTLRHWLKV", "assay": "Dopamine transporter binding", "details": "[^3H]BTCP, Human recombinant CHO cells, read-out: CR6086 Activity at 10µM"}},
  "note": "Marks after values point to notes of the source that are not given here.",
  "data": [
    {"smiles": "O=C([O-])c1ccc(C2(NC(=O)[C@H]3CC4(CCN3Cc3ccc(C(F)(F)F)cc3)CC4)CC2)cc1.[Na+]", "note": "[CR6086, Sodium (R)-4-(1-(6-(4-(trifluoromethyl)benzyl)-6-azaspiro[2.5]octane-5-carboxamido)cyclopropyl)benzoate]", "values": [
      {"measurement": "IC50", "setting": "IL-6 gene expression", "value": 70, "unit": "nM"},
      {"measurement": "effect on joint histopathology", "setting": "[1]; 16 days, 30 mg/kg CR6086, 3 mg/kg MTX, alone or combined", "value": "significantly improved all histological features of arthritis"},
      {"measurement": "CLINICAL SCORE (interquartile range)", "setting": "[1]; DAY 0", "value": "2.0 (2.0 – 2.0) *"},
      {"measurement": "CLINICAL SCORE (interquartile range)", "setting": "[1]; DAY 1", "value": "2.0 (2.0 – 2.0)"},
      {"measurement": "CLINICAL SCORE (interquartile range)", "setting": "[1]; DAY 2", "value": "2.0 (1.0 – 2.0)"},
      {"measurement": "CLINICAL SCORE (interquartile range)", "setting": "[1]; DAY 3", "value": "2.0 (1.0 – 3.1)"},
      {"measurement": "CLINICAL SCORE (interquartile range)", "setting": "[1]; DAY 4", "value": "2.0 (1.0 – 2.3)"},
      {"measurement": "CLINICAL SCORE (interquartile range)", "setting": "[1]; DAY 5", "value": "2.0 (1.3 – 2.0)"},
      {"measurement": "CLINICAL SCORE (interquartile range)", "setting": "[1]; DAY 6", "value": "2.0 (2.0 – 3.0)"},
      {"measurement": "CLINICAL SCORE (interquartile range)", "setting": "[1]; DAY 7", "value": "2.0 (1.0 – 3.1)"},
      {"measurement": "CLINICAL SCORE (interquartile range)", "setting": "[1]; DAY 8", "value": "2.0 (0.5 – 3.5)"},
      {"measurement": "CLINICAL SCORE (interquartile range)", "setting": "[1]; DAY 9", "value": "2.0 (1.0 – 3.3)"},
      {"measurement": "CLINICAL SCORE (interquartile range)", "setting": "[1]; DAY 10", "value": "2.5 (2.0 – 4.3)"},
      {"measurement": "CLINICAL SCORE (interquartile range)", "setting": "[1]; DAY 11", "value": "4.0 (2.0 – 5.0)"},
      {"measurement": "CLINICAL SCORE (interquartile range)", "setting": "[1]; DAY 12", "value": "4.8 (2.8 – 5.1)"},
      {"measurement": "CLINICAL SCORE (interquartile range)", "setting": "[1]; DAY 13", "value": "4.5 (3.0 – 5.5)"},
      {"measurement": "CLINICAL SCORE (interquartile range)", "setting": "[1]; DAY 14", "value": "3.0 (3.0 – 4.9)"},
      {"measurement": "CLINICAL SCORE (interquartile range)", "setting": "[1]; DAY 15", "value": "4.5 (3.0 – 5.0)"},
      {"measurement": "CLINICAL SCORE (interquartile range)", "setting": "[1]; DAY 16", "value": "2.0 (1.0 – 3.5)"},
      {"measurement": "inhibition at 10 µM", "setting": "IP (PGI2)", "value": "< 20", "unit": "%"},
      {"measurement": "inhibition at 10 µM", "setting": "A3", "value": "< 20", "unit": "%"},
      {"measurement": "inhibition at 10 µM", "setting": "M3", "value": "< 20", "unit": "%"},
      {"measurement": "inhibition at 10 µM", "setting": "MC4", "value": "< 20", "unit": "%"},
      {"measurement": "CR6086 Activity at 10µM", "setting": "PDGF", "value": "IN (IN = < 20% displacement or inhibition (all tables))"},
      {"measurement": "CR6086 Activity at 10µM", "setting": "ER", "value": "IN (IN = < 20% displacement or inhibition (all tables))"},
      {"measurement": "inhibition at 10 µM", "setting": "Dopamine transporter", "value": "< 20", "unit": "%"}
    ]}
  ]
}
